Measured values from publication PMC3551932, “STK295900, a Dual Inhibitor of Topoisomerase 1 and 2, Induces G2 Arrest in the Absence of DNA Damage” (PLoS ONE, 2013).

Legend:
HCT-116 cells = test: Cell growth inhibition assay, HCT-116; type: cell-based; details: Homo sapiens, 96 h, Table 1, growth up to 4 days
Description: (§1) Human epitheloid cervical carcinoma HeLa cells, human breast adenocarcinoma MCF7 and MDA-MB-231cells, human hepatocellular carcinoma HepG2 cells, human colon adenocarcinoma HT-29 cells, and human colorectal carcinoma HCT-116 cells were purchased from ATCC® and maintained in DMEM medium. Human prostate carcinoma PC-3 cells (purchased from ATCC®), human gastric carcinoma SNU-484 and SNU-601(obtained from Korean Cell Line Bank (KCLB)), human leukemia K-562 and HL-60 cells (purchased from ATCC®), immortalized human prostate epithelial 267B1cells, and immortalized human embryonic lung fibroblast MRC5CV1 cells were maintained in RPMI 1640 medium whereas immortalized retinal pigment epithelial hTERT RPE-1 cells (purchased from ATCC®) were maintained in DMEM/F12 medium. All cell lines were cultured in media supplemented with 10% fetal bovine serum, 100 U/ml penicillin, and […] streptomycin at 37°C in a 5% CO2 incubator.
(§2) Cells were seeded at the appropriate amount (1–2×10^3 cells) in triplicate in 96-well plates for 24 h and then treated with various concentrations of STK295900. Cell growth was determined by using EZ-CyTox cell viability assay kit (Daeil Lab. Service, Seoul, Korea). Ten microliters of WST solution were added to the treated cells at 24, 48, 72, and 96 h. Cells were further incubated at 37°C for 2 h and the absorbance was measured at 450 nm.

267B1 cells = test: Cell growth inhibition assay, 267B1; type: cell-based, human; details: Homo sapiens, 96 h; Table 2 comparison; 267B1, non-cancer; growth up to 4 days
Description: as §1, §2

[1] = tested on: cancer (HeLa, MCF7, HepG2, and HT-29) and non-cancerous cell lines (hTERT RPE-1, 267B1, and MRC5CV1); test: Cell growth inhibition assay, cancer and non-cancerous cell lines compared; type: cell-based, human; details: cancer (HeLa, MCF7, HepG2, HT-29) vs non-cancer (hTERT RPE-1, 267B1, MRC5CV1)
Description: as §1, §2

HeLa cells = test: Mitotic index (Hoechst 33342 staining, mitotic cells counted); type: cell-based, human; details: various concentrations, 24 h
Description: Given its strong growth inhibitory effect on various cancer cell types, STK295900 was examined to determine its effect on cell cycle distribution using flow cytometry analysis. […] We then analyzed whether the increasing G2/M population in Fig. 2A is indeed G2 or M phase by determining the mitotic index and investigating the cell cycle regulatory proteins. To determine mitotic index, the treated cells were stained with Hoechst 33342 and then mitotic cells were counted. […] (A) Flow cytometric analysis for cell cycle distribution. HeLa cells were treated with the indicated concentrations of STK295900 for 24 h. Treated cells were then stained with propidium iodide (PI) and processed for cell cycle analysis. The bar graph represents the mean percentage of each cell cycle phase ± SD from three independent experiments. * = p<0.05 versus the respective G1, S, or G2/M phase of DMSO-treated cells. […] HeLa cells were treated with the indicated concentrations of STK295900 for 24 h. Cells were then stained with Hoechst 33342 and mitotic cells were counted. […] (C) Cell cycle related proteins expression.

In the case of Nc1ccc(-c2nc3ccc(-c4ccc5nc(-c6ccc(N)cc6)[nH]c5c4)cc3[nH]2)cc1 [STK295900, 4,4′-(3H,3′H-5,5′-bibenzimidazole-2,2′-diyl)dianiline], the IC50 (HCT-116 cells) is reported as 2.83 µM, the IC50 (267B1 cells) is reported as 1.61 µM and the “selectivity of toxicity, cancer versus non-cancer cells” value [1] is reported as “selective toxicity against cancer cells”. The mitotic index (HeLa cells) was “no significant change in mitotic index”.
